PMC6151961 (Journal of Enzyme Inhibition and Medicinal Chemistry, 2018)
Like-named read-outs stand apart in the source and are kept apart here.

Legend:
[1] = RP-LC chromatographic lipophilicity (logkw); type: physicochemical; conditions: chromatographic lipophilicity from gradient RP-LC, Luna RP-C18, water/acetonitrile with 0.1% formic acid, 30 °C
CA IX [2] = biological target: T1, CA IX (Homo sapiens, UniProt Q16790); assay: Stopped-flow CA-catalysed CO2 hydration inhibition assay; type: biochemical; conditions: for Ki: sulphonamides with IDs C...
CA IX [3] = biological target: T1, CA IX; conditions: cited from earlier work
CA IX [4] = biological target: T1, CA IX; assay: biochemical
[5] = read-out: pKi (exp.) (converted)
[6] = observed Ki of library compounds (IDs A…, B…), ref ChEMBL and BindingDB, read-out: Ki
[7] = experimental value used for the QSPR model, library compounds (IDs A…, B…), equals log10 of Ki in nM, read-out: pKi (exp.) (converted)
[8] = experimental value from the library Ki (IDs A…, B…), values equal log10 of Ki in nM, read-out: pKi (exp.) (converted)
[9] = library compounds with IDs A… and B…, observed Ki, ref ChEMBL, BindingDB, read-out: Ki
[10] = library compounds with IDs A… and B…, from observed Ki (nM), read-out: pKi (exp.) (converted)

Cc1cc(S(=O)(=O)NC(=N)Nc2ccc(S(N)(=O)=O)cc2)c(SCc2cccc3ccccc23)cc1Cl [C111]
logkw [1]: 3.900

Cc1cc(S(=O)(=O)NC(=N)Nc2ccc(S(N)(=O)=O)cc2)c(SCc2cccc(C(F)(F)F)c2)cc1Cl [C100]
logkw [1]: 4.530

Cc1cc(S(=O)(=O)NC(=N)Nc2ccccc2S(N)(=O)=O)c(SCc2cc(=O)[nH]c3ccccc23)cc1Cl [C117]
logkw [1]: 3.870

Cc1cc(S(=O)(=O)NC(=N)Nc2cccc(S(N)(=O)=O)c2)c(SCc2cc3c(cc2Cl)OCO3)cc1Cl [C121]
logkw [1]: 3.990

Cc1cc(S(=O)(=O)NC(=N)NNc2ccc(S(N)(=O)=O)cc2)c(SCc2ccccc2)cc1Cl [C97]
logkw [1]: 4.090

Cc1cc(S(=O)(=O)NC(=N)NNc2ccc(S(N)(=O)=O)cc2)c(SCc2cc3c(cc2Cl)OCO3)cc1Cl [C122]
logkw [1]: 3.690

Cc1cc(S(=O)(=O)NC(=N)NNc2ccc(S(N)(=O)=O)cc2)c(SCc2ccc(C(F)(F)F)cc2)cc1Cl [C108]
logkw [1]: 4.460

Cc1cc(S(=O)(=O)NC(=N)Nc2ccc(S(N)(=O)=O)cc2)c(SCc2cc3c(cc2Cl)OCO3)cc1Cl [C120]
logkw [1]: 4.070

Cc1cc(S(=O)(=O)NC(=N)Nc2cccc(S(N)(=O)=O)c2)c(SCc2cccc3ccccc23)cc1Cl [C112]
logkw [1]: 3.940

Cc1cc(S(=O)(=O)NC(=N)Nc2ccccc2S(N)(=O)=O)c(SCc2ccccc2)cc1Cl [C96]
logkw [1]: 4.090

Cc1cc(S(=O)(=O)NC(=N)Nc2nnc(S(N)(=O)=O)s2)c(SCc2ccccc2)cc1Cl [C99]
logkw [1]: 4.070

Cc1cc(S(=O)(=O)NC(=N)NCc2ccc(S(N)(=O)=O)cc2)c(SCc2ccc(C(F)(F)F)cc2)cc1Cl [C109]
logkw [1]: 4.590

Cc1cc(S(=O)(=O)NC(=N)Nc2ccc(S(N)(=O)=O)cc2)c(SCc2cc(=O)[nH]c3ccccc23)cc1Cl [C115]
logkw [1]: 3.830

Cc1cc(S(=O)(=O)NC(=N)NCc2ccc(S(N)(=O)=O)cc2)c(SCc2ccccc2)cc1Cl [C98]
logKi(CA IX) (CA IX [2]; logarithm of Ki (Ki in nM), mean of three determinations): 1.130 | Ki (CA IX [2]; read-out: Ki): 23.1 nM | Ki (CA IX [2]; [5]): 23.1 nM | logkw [1]: 3.920

Cc1cc(S(=O)(=O)NC(=N)Nc2cccc(S(N)(=O)=O)c2)c(SCc2cc(=O)[nH]c3ccccc23)cc1Cl [C116]
logkw [1]: 3.800

Cc1cc(S(=O)(=O)NC(=N)Nc2ccc(S(N)(=O)=O)cc2)c(SCc2ccccc2)cc1Cl [C94]
logkw [1]: 4.050

Cc1cc(S(=O)(=O)NC(=N)NNc2ccc(S(N)(=O)=O)cc2)c(SCc2cccc3ccccc23)cc1Cl [C113]
logkw [1]: 3.830

Cc1cc(S(=O)(=O)NC(=N)Nc2cccc(S(N)(=O)=O)c2)c(SCc2ccccc2)cc1Cl [C95]
logkw [1]: 3.930

Cc1cc(S(=O)(=O)NC(=N)NNc2ccc(S(N)(=O)=O)cc2)c(SCc2cc(=O)[nH]c3ccccc23)cc1Cl [C118]
logkw [1]: 3.770

NS(=O)(=O)c1ccc(-c2cn([C@H]3O[C@H](CO)[C@@H](O[C@@H]4O[C@H](CO)[C@@H](O)[C@H](O)[C@@H]4O)[C@H](O)[C@@H]3O)nn2)cc1 [B0632]
Ki (CA IX [3]; read-out: Ki): 130 nM | Ki (CA IX [4]; [5]): 130 nM

Cc1cc(S(=O)(=O)NC(=N)NCc2ccc(S(N)(=O)=O)cc2)c(SCc2cccc3ccccc23)cc1Cl [C114]
logkw [1]: 3.990

NS(=O)(=O)c1ccc(-n2nnc(CS[C@H]3O[C@H](CO)[C@@H](O)[C@@H](O)[C@H]3O)c2I)cc1 [B0123]
Ki (CA IX [3]; [6]): 6.5 nM | Ki (CA IX [4]; [7]): 6.5 nM

CCOc1ccc(S(=O)(=O)N2CCOCC2)cc1-c1nnc2c(n1)c(C)nn2C [B0310]
Ki (CA IX [3]; [6]): 24 nM | Ki (CA IX [4]; [8]): 24 nM

Cc1cc(S(=O)(=O)NC(=N)Nc2cccc(S(N)(=O)=O)c2)c(SCc2cccc(C(F)(F)F)c2)cc1Cl [C101]
logkw [1]: 4.470

Cc1cc(S(=O)(=O)NC(=N)Nc2ccccc2S(N)(=O)=O)c(SCc2cccc(C(F)(F)F)c2)cc1Cl [C102]
logkw [1]: 4.430

Cc1cccc(/C=N/CCc2ccc(S(N)(=O)=O)cc2)c1O [B0709]
Ki (CA IX [3]; read-out: Ki): 295 nM | Ki (CA IX [4]; [5]): 295 nM

Cc1cc(S(=O)(=O)NC(=N)Nc2ccccc2S(N)(=O)=O)c(SCc2ccc(C(F)(F)F)cc2)cc1Cl [C107]
logkw [1]: 4.430

Cc1cc(S(=O)(=O)NC(=N)Nc2nnc(S(N)(=O)=O)s2)c(SCc2cccc(C(F)(F)F)c2)cc1Cl [C104]
logkw [1]: 4.600

CC(=O)[C@H]1NN(c2ccccc2)[C@H]([C@H](C#N)C(=O)Nc2ccc(S(N)(=O)=O)cc2)S1 [A0013]
Ki (CA IX [3]; [6]): 0.33 nM | Ki (CA IX [4]; [8]): 0.33 nM

Cc1cc(S(=O)(=O)NC(=N)Nc2cccc(S(N)(=O)=O)c2)c(SCc2ccc(C(F)(F)F)cc2)cc1Cl [C106]
logkw [1]: 4.540

Cc1cc(S(=O)(=O)NC(=N)Nc2ccc(S(N)(=O)=O)cc2)c(SCc2ccc(C(F)(F)F)cc2)cc1Cl [C105]
logkw [1]: 4.550

NOS(=O)(=O)N[C@H]1C=C[C@H](O)[C@@H](CO)O1 [A1502]
Ki (CA IX [3]; [6]): 85 nM | Ki (CA IX [4]; [8]): 84.9 nM

CC(=O)OC[C@H]1O[C@H](SCc2nnn(-c3ccc(S(N)(=O)=O)cc3)c2C#CCO)[C@@H](OC(C)=O)[C@H](OC(C)=O)[C@@H]1OC(C)=O [B0570]
Ki (CA IX [3]; [6]): 91 nM | Ki (CA IX [4]; [8]): 91 nM

NS(=O)(=O)c1ccc(NC(=S)Nc2ccc(C3c4ccc(O)cc4Oc4cc(O)ccc43)c(C(=O)O)c2)c(Cl)c1 [B0381]
Ki (CA IX [3]; [9]): 32 nM | Ki (CA IX [4]; [10]): 32 nM

C[C@]12CC[C@@H](OS(N)(=O)=O)CC1=C[C@@H](O)[C@@H]1[C@@H]2CC[C@]2(C)C(=O)CC[C@@H]12 [A1368]
Ki (CA IX [3]): 65 nM | Ki (CA IX [4]): 65 nM

NOS(=O)(=O)N[C@H]1C=C[C@H](O)CO1 [A1544]
Ki (CA IX [3]; read-out: Ki): 91 nM | Ki (CA IX [4]; [5]): 91 nM

NS(=O)(=O)c1ccc(-n2cc(/C=N/Nc3nc(-c4cc5cc(Br)ccc5oc4=O)cs3)c(-c3ccccc3)n2)cc1 [B0298]
Ki (CA IX [3]; read-out: Ki): 22 nM | Ki (CA IX [4]; [5]): 22 nM

CC(=O)O[C@@H]1O[C@@H](COS(N)(=O)=O)[C@H](OC(C)=O)[C@@H](OC(C)=O)[C@H]1OC(C)=O [B0512]
Ki (CA IX [3]; [6]): 73 nM | Ki (CA IX [4]; [7]): 72.9 nM

CC1=CC(C)C=C(C)N1Cc1ccc(S(N)(=O)=O)cc1 [B0412]
Ki (CA IX [3]; [6]): 38 nM | Ki (CA IX [4]; [8]): 38 nM

Cc1ccc2c(c1)/C(=N/c1ccc(NC(=O)Nc3ccc(S(N)(=O)=O)cc3)cc1)C(=O)N2 [B0270]
Ki (CA IX [3]; [6]): 17 nM | Ki (CA IX [4]; [7]): 17 nM

CC(=O)OC[C@H]1O[C@H](CC(=O)/C=C\c2ccc(O)cc2)[C@@H](OC(C)=O)[C@H](OC(C)=O)[C@@H]1OC(C)=O [B0789]
Ki (CA IX [3]; [9]): 2900 nM | Ki (CA IX [4]; [10]): 2900 nM

Cc1cc(S(=O)(=O)NC(=N)NCc2ccc(S(N)(=O)=O)cc2)c(SCc2cc3c(cc2Cl)OCO3)cc1Cl [C123]
logkw [1]: 3.850

C[C@H](NC(=O)Nc1ccc(NS(N)(=O)=O)cc1)c1cccc2ccccc12 [B0045]
Ki (CA IX [3]; [9]): 3.4 nM | Ki (CA IX [4]; [10]): 3.4 nM

NS(=O)(=O)Nc1ccc(NC(=O)Nc2ccc(Cl)cc2)cc1 [A0149]
Ki (CA IX [3]; [6]): 3 nM | Ki (CA IX [4]; [7]): 3 nM

NS(=O)(=O)OC[C@H]1O[C@H](O)[C@H](O)[C@@H](O)[C@H]1O [A1346]
Ki (CA IX [3]; [6]): 62 nM | Ki (CA IX [4]; [8]): 61.9 nM

NS(=O)(=O)c1ccc(-n2cc(CO[C@H]3O[C@@H](CO)[C@H](O)[C@H](O)[C@@H]3O)nn2)cc1 [B0594]
Ki (CA IX [3]; read-out: Ki): 101 nM | Ki (CA IX [4]; [5]): 101 nM
